How the values were obtained:
[1] = system: commensal microflora in the oral cavity; settings: in vivo; cited from earlier work
[2] = system: certain microorganisms; test: Comparative antimicrobial experiments, hydrogen peroxide alone vs enriched extract; assay type: cell-based; settings: 0.05 wt % expressed as H2O2
[3] = system: L5178Y leukemia lymphoma mouse cells; settings: cited from earlier work
[4] = system: chloroquine-resistant strain K1 of Plasmodium falciparum; settings: in vitro; cited from earlier work
[5] = system: Candida albicans; settings: in vitro; cited from earlier work
[6] = system: Bacillus subtilis; settings: in vitro; cited from earlier work
[7] = system: Pseudomonas aeruginosa; settings: in vitro; cited from earlier work
[8] = system: Micrococcus luteus; settings: in vitro; cited from earlier work
[9] = system: Escherichia coli; settings: in vitro; cited from earlier work
[10] = system: Staphylococcus aureus; settings: in vitro; cited from earlier work

Q: With `[H]/N=C(\N/C(=N/[H])NCCCCCCNC(=N)NC(=N)Nc1ccc(Cl)cc1)Nc1ccc(Cl)cc1` [chlorhexidine] as the compound, how does the “effect on the commensal microflora in the oral cavity” value [1] read?
A: Its value is “extremely harmful effect”.

Q: With `OO` [hydrogen peroxide] as the compound, how does the antimicrobial effect [2] read?
A: Its antimicrobial effect is “did not yield the antimicrobial properties”.

Q: What about the “effect on the commensal microflora in the oral cavity” value [1] of the same compound?
A: The value was “extremely harmful effect”.

Q: Which results are given for `COc1cc(O)c(-c2c(C)cc(O)c3c2C(=O)c2ccc([C@H]4c5cccc(O)c5C(=O)c5c(O)cc(C)c(-c6c(O)cc(OC)c(C(C)=O)c6O)c54)c(O)c2C3=O)c(O)c1C(C)=O` [joziknipholone A]?
A: effect against L5178Y cells [3]: moderate effect; effect against Plasmodium falciparum K1 [4]: exhibited an effect

Q: What does the source list for `COc1cc(O)c(-c2c(C)cc(O)c3c2C(=O)c2cccc(O)c2C3=O)c(O)c1C(C)=O` [knipholone]?
A: antimicrobial effect [5]: ineffective; antimicrobial effect [6]: ineffective; antimicrobial effect [7]: ineffective; antimicrobial effect [8]: ineffective; antimicrobial effect [9]: ineffective; antimicrobial effect [10]: ineffective
